Test results: article PMC5520691, “An enhanced bioluminescence-based Annexin V probe for apoptosis detection in vitro and in vivo” (Cell Death & Disease, 2017)

Biological target: T1, ArFP (Annexin V-Renilla luciferase RLuc8 fusion protein) (Homo sapiens, UniProt P08758)
T1 construct: gene ANXA5; Annexin V fused N-terminal to the RLuc8 reporter (Renilla reniformis luciferase mutant) via a short linker (GGSGGS by the primers); N-terminal 6xHis tag, pET-30 Xa/LIC, E. coli T7 Express, Ni-NTA; primers cover the Annexin V start (ATGGCACAGGTTCTC, MAQVL) and end (CGEDD)
T1 sequence (P08758 1-320): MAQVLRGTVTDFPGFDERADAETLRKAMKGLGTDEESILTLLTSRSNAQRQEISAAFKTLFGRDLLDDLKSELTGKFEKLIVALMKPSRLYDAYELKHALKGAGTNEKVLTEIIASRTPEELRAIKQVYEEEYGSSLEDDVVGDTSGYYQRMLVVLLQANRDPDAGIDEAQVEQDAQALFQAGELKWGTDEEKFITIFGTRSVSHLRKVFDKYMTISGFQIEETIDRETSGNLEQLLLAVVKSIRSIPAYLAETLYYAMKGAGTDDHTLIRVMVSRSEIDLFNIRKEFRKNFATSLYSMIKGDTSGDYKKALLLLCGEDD
Experiment: isothermal titration calorimetry, vesicles titrated into protein, independent binding model
Details: read-out: Binding affinity for PS (KD)

CCCCCCCC/C=C\CCCCCCCC(=O)O[C@H](COC(=O)CCCCCCCCCCCCCCC)COP(=O)(O)OC[C@H](N)C(=O)O [POPS, 1-palmitoyl-2-oleoyl-sn-glycero-3-[phospho-L-serine]] showed a Kd of 20.7 µM.
